From ChEMBL document CHEMBL5233269, “Anticancer potential of spirocompounds in medicinal chemistry: A pentennial expedition” (Eur J Med Chem, 2021)
In brackets after ≈: the same amount, converted by molar mass.

How the values were obtained:
[1] = tested on: PC-3; experiment: Antiproliferative activity against human PC-3 cells assessed as inhibition of cell viability by MTT assay; assay type: functional, cell-based
[2] = tested on: MDA-MB-231; experiment: Antiproliferative activity against human MDA-MB-231 cells assessed as inhibition of cell viability by MTT assay; assay type: functional, cell-based
[3] = tested on: MCF7; experiment: Antiproliferative activity against human MCF7 cells by MTT assay; assay type: functional, cell-based
[4] = tested on: DU-145; experiment: Antiproliferative activity against human DU-145 cells assessed as inhibition of cell viability by MTT assay; assay type: functional, cell-based
[5] = tested on: HepG2; experiment: Anticancer activity against human HepG2 cells at 50 ug/ml measured after 48 hrs relative to control; assay type: functional; conditions: dose 50 µg/ml
[6] = tested on: HeLa; experiment: Anticancer activity against human HeLa cells assessed as inhibition of cell viability; assay type: functional, cell-based
[7] = Anticancer activity against […] 3T3 cells; assay type: functional, cell-based; conditions: NIH3T3
[8] = tested on: MCF7; experiment: Cytotoxicity against human MCF7 cells assessed as lethal dose; assay type: functional; conditions: read-out: LD50 (the source's name)
[9] = tested on: HepG2; experiment: Cytotoxicity against human HepG2 cells incubated overnight by MTT assay; assay type: functional, cell-based
[10] = tested on: HCT-116; experiment: Cytotoxicity against human HCT-116 cells incubated overnight by MTT assay; assay type: functional, cell-based
[11] = tested on: MCF7; experiment: Cytotoxicity against human MCF7 cells incubated overnight by MTT assay; assay type: functional, cell-based
[12] = tested on: CT26; experiment: Anticancer activity against mouse CT26 cells at 50 ug/ml measured after 24 hrs relative to control; assay type: functional; conditions: dose 50 µg/ml
[13] = tested on: KB; experiment: Anticancer activity against human KB cells assessed as inhibition of cell proliferation; assay type: functional, cell-based
[14] = tested on: MCF7; experiment: Anticancer activity against human MCF7 cells assessed as inhibition of cell proliferation; assay type: functional, cell-based
[15] = Cytotoxicity against human H357 cells; assay type: functional, cell-based
[16] = tested on: MDA-MB-231; experiment: Cytotoxicity against human MDA-MB-231 cells; assay type: functional, cell-based
[17] = tested on: HCT-116; experiment: Cytotoxicity against human HCT-116 cells assessed a reduction in cell viability; assay type: functional, cell-based
[18] = tested on: MCF7; experiment: Cytotoxicity against human MCF7 cells; assay type: functional, cell-based
[19] = Antiproliferative activity against human Panel (10 carcinoma cell lines) cells; assay type: functional, cell-based
[20] = tested on: Bel-7402; experiment: Antiproliferative activity against human Bel-7402 cells; assay type: functional, cell-based
[21] = tested on: HCT-116; experiment: Antiproliferative activity against human HCT-116 cells assessed as cell growth inhibition; assay type: functional, cell-based
[22] = tested on: MGC-803; experiment: Antiproliferative activity against human MGC-803 cells assessed as cell growth inhibition; assay type: functional, cell-based
[23] = tested on: A549; experiment: Antiproliferative activity against human A549 cells assessed as cell growth inhibition; assay type: functional, cell-based
[24] = tested on: HaCaT; experiment: Growth inhibition of human HaCaT cells; assay type: functional
[25] = tested on: HOP-92; experiment: Anticancer activity against human HOP-92 cells assessed as reduction in cell proliferation; assay type: functional, cell-based
[26] = tested on: PC-3; experiment: Anticancer activity against human PC-3 cells assessed as reduction in cell proliferation; assay type: functional, cell-based
[27] = tested on: A549; experiment: Anticancer activity against human A549 cells assessed as reduction in cell proliferation; assay type: functional, cell-based
[28] = tested on: UO-31; experiment: Anticancer activity against human UO-31 cells assessed as reduction in cell proliferation; assay type: functional, cell-based
[29] = tested on: FaDu; experiment: Anticancer activity against human FaDu cells; assay type: functional, cell-based
[30] = tested on: HCT-116; experiment: Anticancer activity against human HCT-116 cells measured after 48 hrs by Sulforhodamine B assay; assay type: functional, cell-based; conditions: HCT-116, 48 h
[31] = tested on: T47D; experiment: Anticancer activity against human T47D cells measured after 48 hrs by Sulforhodamine B assay; assay type: functional, cell-based
[32] = tested on: HepG2; experiment: Anticancer activity against human HepG2 cells measured after 48 hrs by Sulforhodamine B assay; assay type: functional, cell-based; conditions: HepG2, 48 h
[33] = tested on: MCF7; experiment: Anticancer activity against human MCF7 cells measured after 48 hrs by Sulforhodamine B assay; assay type: functional, cell-based; conditions: MCF7, 48 h
[34] = tested on: HeLa; experiment: Anticancer activity against human HeLa cells measured after 48 hrs by Sulforhodamine B assay; assay type: functional, cell-based
[35] = tested on: MCF7; experiment: Cytotoxicity against human MCF7 cells incubated for 72 hrs by MTT assay; assay type: functional, cell-based; conditions: MCF7, 72 h
[36] = tested on: A549; experiment: Cytotoxicity against human A549 cells incubated for 72 hrs by MTT assay; assay type: functional, cell-based; conditions: A549, 72 h
[37] = Cytotoxicity against HEK293T cells incubated for 72 hrs by MTT assay; assay type: toxicity, cell-based, HEK-293T; conditions: human
[38] = Cytotoxicity against human VA13 cells incubated for 72 hrs by MTT assay; assay type: toxicity, cell-based; conditions: VA13 (WI-38 VA13) cells
[39] = tested on: A549; experiment: Anticancer activity against human A549 cells; assay type: functional, cell-based
[40] = tested on: PC-3; experiment: Anticancer activity against human PC-3 cells; assay type: functional, cell-based
[41] = tested on: K562; experiment: Anticancer activity against human K562 cells; assay type: functional, cell-based

With `Clc1ccc(C2=NO[C@@]3(CCCCO3)[C@H]2Br)cc1` the IC50 [1] was 56.7 µM, the IC50 [2] was 53.1 µM and the IC50 [3] was 51.2 µM. It also gave an IC50 [4] of 48.1 µM.

Work on `CCCCN1C(=O)C2(c3cc(F)ccc31)[C@@H](C(=O)OCC)[C@H](C(=O)OCC)NC2(CC(=O)OC)C(=O)OC` (some centres not stated) yielded an Activity [5] of 55.92%.

`O=C(c1ccc(F)cc1)C1C(c2ccc(Cl)cc2Cl)C2CSCN2C12C(=O)Nc1ccccc12` (configuration not stated) showed an IC50 [6] of 11.2 µM and an IC50 [7] of 21.2 µM.

`COC1=C(Br)[C@@H](O)[C@]2(C=C1Br)CC(C(=O)NCC(O)c1cc(Br)c(OCCCNC(=O)C3=NO[C@]4(C=C(Br)C(OC)=C(Br)[C@@H]4O)C3)c(Br)c1)=NO2` (some centres not stated) showed a CC50 [8] of 17 µg/mL (≈ 15.5 µM).

In the case of `O=C(/C=C/c1ccc(Br)cc1)[C@H]1[C@H](c2ccc(Br)cc2)C2CSCN2[C@]12C(=O)Nc1cc(Br)c(Br)cc12` (some centres not stated), the IC50 [9] is reported as 50 µM, the IC50 [10] is reported as 2.2 µM and the IC50 [11] is reported as 2.5 µM.

For `CCOC(=O)[C@@H]1N[C@@](CC(=O)OC)(C(=O)OC)C2(C(=O)N(C(=O)OC(C)(C)C)c3ccccc32)[C@H]1c1ccc([N+](=O)[O-])cc1` (some centres not stated), the Activity [12] was 58.89%.

For `O=C1NC(=O)C2(Cc3ccccc3N3CCSCC32)C(=O)N1` (configuration not stated), the IC50 [13] was 49.8 µM and the IC50 [14] was 90.2 µM.

In the case of `CCOc1cccc2c1OCC1=CCC3(O[C@H]12)C(=O)c1ccccc1C3=O`, the IC50 [15] is reported as 55 µM, the IC50 [16] is reported as 15 µM and the IC50 [17] is reported as 27.5 µM. For the same molecule, the IC50 [18] was 20 µM.

In the case of `O=C(C[C@@H](CC1CCCC1)C(=O)N1CC2(CC2)C[C@H]1C(=O)Nc1ccc(F)cn1)NO`, the IC50 [19] is reported as 2 µM, the IC50 [20] is reported as 4.88 µM and the IC50 [21] is reported as 4.88 µM. For the same molecule, the IC50 [22] was 4.88 µM and the IC50 [23] was 4.88 µM.

With `N#CC1=CC2(c3ccccc3NC3C=CC=CC32)N(/N=C/c2ccccc2)C1=O` (configuration not stated) the GI50 [24] was 2 µM.

For `Cc1ccc(/C=C2\CN(C)C[C@]3(C2=O)[C@H](c2ccc(C)cc2)CN(C)[C@]32C(=O)N(CN3CCOCC3)c3ccccc32)cc1`, the IC50 [25] was 1.4 µM, the IC50 [26] was 0.831 µM and the IC50 [27] was 3.59 µM. It also gave an IC50 [28] of 1.77 µM.

For `Cc1ccccc1/C=C1\CN(/C=C/c2ccccc2)C[C@]2(C1=O)[C@H](c1ccccc1C)[C@@H](Cc1ccccc1)N[C@]21C(=O)Nc2ccccc21`, the IC50 [29] was 21 µM.

With `COc1ccc2c(c1)[C@]1(C(=O)N2)N(C)C[C@@H](c2ccc(F)cc2)[C@@]12CN(C)C/C(=C\c1ccc(F)cc1)C2=O` the IC50 [30] was 2.86 µM, the IC50 [31] was 2.98 µM and the IC50 [32] was 3.08 µM. For the same molecule, the IC50 [33] was 3.1 µM and the IC50 [34] was 2.88 µM.

For `CN1C[C@H](c2ccc(F)cc2)[C@]2(NC(=O)NC2=O)C12C(=O)Nc1ccccc12` (some centres not stated), the IC50 [35] was 18.3 µM, the IC50 [36] was 7.5 µM and the IC50 at 72 h [37] was 14.3 µM. For the same molecule, the IC50 at 72 h [38] was 20.8 µM.

`O=C1/C(=C/c2ccccc2)CN(/C=C/c2ccccc2)C[C@@]12[C@H](c1ccccc1)[C@@H](Cc1ccccc1)N[C@]21C(=O)Nc2ccccc21` gave an IC50 [29] of 19 µM.

In the case of `CCN(CC)C[C@@]1([C@H]2c3ccccc3[C@@H](O)[C@]23C(=O)N(Cc2ccccc2)c2ccccc23)C(=O)N(Cc2ccccc2)c2ccccc21`, the IC50 [39] is reported as 18.1 µM, the IC50 [40] is reported as 17.7 µM and the IC50 [41] is reported as 7.4 µM.

In the case of `CN1C/C(=C\c2ccc(F)cc2)C(=O)[C@@]2(C1)[C@H](c1ccc(F)cc1)CN(C)[C@]21C(=O)Nc2ccc(Cl)cc21`, the IC50 [30] is reported as 2.74 µM, the IC50 [31] is reported as 3.1 µM and the IC50 [32] is reported as 3.08 µM. For the same molecule, the IC50 [33] was 2.98 µM and the IC50 [34] was 2.75 µM.
